Measured values reported in PubChem BioAssay (NCI).
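How tested: cells in 96-well plates exposed to compound for 48 hours at five concentrations. Definition used: TGI = concentration required for complete inhibition of growth.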

Legend:
Assay in all cases: inhibition of tumour cell growth, NCI panel, 48 h
SNB-19 CNS = tested on: SNB-19 CNS
KM12 colon = tested on: KM12 colon
NCI-H226 lung = tested on: NCI-H226 lung
HCT-15 colon = tested on: HCT-15 colon
TK-10 renal = tested on: TK-10 renal
LOX IMVI melanoma = tested on: LOX IMVI melanoma
SK-MEL-2 melanoma = tested on: SK-MEL-2 melanoma
SW-620 colon = tested on: SW-620 colon
CAKI-1 renal = tested on: CAKI-1 renal
HCC-2998 colon = tested on: HCC-2998 colon
EKVX NSCLC = tested on: EKVX NSCLC
SK-OV-3 ovarian = tested on: SK-OV-3 ovarian
MALME-3M melanoma = tested on: MALME-3M melanoma
CCRF-CEM leukemia = tested on: CCRF-CEM leukemia
K-562 leukemia = tested on: K-562 leukemia
UO-31 renal = tested on: UO-31 renal
SF-268 CNS = tested on: SF-268 CNS
SN12C renal = tested on: SN12C renal
A549 NSCLC = tested on: A549 NSCLC
RPMI-8226 leukemia = tested on: RPMI-8226 leukemia

| SMILES | TGI (SNB-19 CNS) [µM] | TGI (KM12 colon) [µM] | TGI (NCI-H226 lung) [µM] | TGI (HCT-15 colon) [µM] | TGI (TK-10 renal) [µM] | TGI (LOX IMVI melanoma) [µM] | TGI (SK-MEL-2 melanoma) [µM] | TGI (SW-620 colon) [µM] | TGI (CAKI-1 renal) [µM] | TGI (HCC-2998 colon) [µM] | TGI (EKVX NSCLC) [µM] | TGI (SK-OV-3 ovarian) [µM] | TGI (MALME-3M melanoma) [µM] | TGI (CCRF-CEM leukemia) [µM] | TGI (K-562 leukemia) [µM] | TGI (UO-31 renal) [µM] | TGI (SF-268 CNS) [µM] | TGI (SN12C renal) [µM] | TGI (A549 NSCLC) [µM] | TGI (RPMI-8226 leukemia) [µM] |
| --- | --- | --- | --- | --- | --- | --- | --- | --- | --- | --- | --- | --- | --- | --- | --- | --- | --- | --- | --- | --- |
| CCc1cccc(C(C)CC)c1NC(=O)C(=O)Cc1nc2ccccc2o1 (stereo not given) | > 50 | > 50 | > 50 | > 50 | > 50 | > 50 | > 50 | > 50 | > 50 | > 50 | > 50 | > 50 | > 50 | > 50 | > 50 | > 50 | > 50 | > 50 | > 50 | > 50 |
| CC(C)(C)OC(=O)N1CC(C)(C)N2C(=O)C3(CCCO3)C12 (stereo not given) | > 100 | > 100 | > 100 | > 100 | > 100 | > 100 | > 100 | 30.4 | > 100 | > 100 | > 100 | > 100 | > 100 | > 100 | > 100 | > 100 | > 100 | > 100 | > 100 | 53.1 |
| O=C1NC(=S)NC(=O)C1=CC1CC1 | > 100 | > 100 | > 100 | > 100 | > 100 | > 100 | > 100 | > 100 | > 100 | > 100 | > 100 | > 100 | > 100 | > 100 | > 100 | > 100 | > 100 | > 100 | > 100 | > 100 |
| CC(=O)C1C(=O)C(C(C)=O)C2C3C=CC(C3)C12 (stereo not given) | > 100 | > 100 | > 100 | > 100 | > 100 | > 100 | > 100 | > 100 | > 100 | > 100 | – | > 100 | > 100 | > 100 | > 100 | > 100 | > 100 | > 100 | > 100 | > 100 |
| CC(=O)Nn1cnc(C(=N)C#N)c1N | > 100 | > 100 | > 100 | > 100 | > 100 | > 100 | > 100 | > 100 | > 100 | > 100 | > 100 | > 100 | > 100 | > 100 | > 100 | > 100 | > 100 | > 100 | > 100 | > 100 |
| Brc1ccc(C=NC23CC4CC(CC(C4)C2)C3)cc1 | > 100 | > 100 | > 100 | > 100 | > 100 | > 100 | > 100 | > 100 | > 100 | > 100 | > 100 | > 100 | > 100 | > 100 | > 100 | > 100 | > 100 | > 100 | > 100 | > 100 |
| CCOC(=O)C(NC(=O)c1cccc(Cl)c1)(Nc1ccc(S(=O)(=O)Nc2cc(C)nc(C)n2)cc1)C(F)(F)F (stereo not given) | > 100 | > 100 | > 100 | > 100 | > 100 | > 100 | > 100 | > 100 | > 100 | > 100 | > 100 | > 100 | > 100 | > 100 | – | > 100 | > 100 | > 100 | > 100 | > 100 |
| c1cc(C2=NCCO2)c2ccsc2c1 | > 100 | > 100 | > 100 | > 100 | > 100 | > 100 | > 100 | > 100 | > 100 | > 100 | > 100 | > 100 | > 100 | > 100 | > 100 | > 100 | > 100 | > 100 | > 100 | > 100 |
| CC12C3CC4C5CC(C(C53)[C@@H]1NCc1ccccc1)C42 (stereo not given in full) | > 100 | > 100 | > 100 | > 100 | > 100 | > 100 | > 100 | > 100 | > 100 | 41.8 | > 100 | > 100 | > 100 | > 100 | > 100 | > 100 | > 100 | > 100 | > 100 | > 100 |
| CN/N=C(\C(=O)Nc1ccc(C(F)(F)F)cc1[N+](=O)[O-])C(c1cnc2ccc([N+](=O)[O-])cc2n1)[N+](=O)[O-] (stereo not given) | > 100 | > 100 | 78.5 | > 100 | – | > 100 | > 100 | > 100 | > 100 | 84.8 | 65.9 | > 100 | > 100 | > 100 | > 100 | > 100 | > 100 | > 100 | > 100 | > 100 |
| CSc1nc(-c2ccccc2)nc(C(C#N)C#N)n1 | > 100 | > 100 | > 100 | > 100 | > 100 | > 100 | > 100 | > 100 | > 100 | > 100 | > 100 | > 100 | > 100 | > 100 | – | > 100 | > 100 | > 100 | > 100 | > 100 |
| O=C(O)/C=C/c1ccc(OS(=O)(=O)O)cc1 | > 100 | > 100 | > 100 | > 100 | > 100 | > 100 | > 100 | > 100 | > 100 | > 100 | > 100 | > 100 | > 100 | – | > 100 | > 100 | > 100 | > 100 | > 100 | > 100 |
